# Reference: patent publication US9238634B2, “Anti-inflammatory metabolite derived from omega-3-type fatty acid” (THE UNIVERSITY OF TOKYO, priority 2010, dated 2016)
# Tested on: PMN (neutrophils)
# Experiment: Zymosan peritonitis model, number of PMN (neutrophils) in intraperitoneal cells by FACS
# Type: in vivo, C57BL/6J mice
# Details: for PMN (mean % suppression) / Inhibition rate (PMN inhibition): caudal vein, zymosan 1 mg i.p.; for PMN (mean % suppression): two hours; for suppression of neutrophil infiltration: caudal vein (FIG. 4C); for Inhibition rate (PMN inhibition): cells recovered two hours later
# Procedure: [FIG. 4A] […] The model was produced by inducing acute peritonitis by intraperitoneal administration of 1 mg of zymosan to C57BL6 mice. From the left, 17,18-EpETE, 5-hydroxy-17,18-epoxy-ETE (5hy-17,18-EpETE), 8-hydroxy-17,18-epoxy-ETE (8hy-17,18-EpETE), 12-hydroxy-17,18-epoxy-ETE (12hy-17,18-EpETE), and 15-hydroxy-17,18-epoxy-ETE (15hy-17,18-EpETE) respectively ([…]) were injected from a caudal vein of the mouse, and peritonitis was initiated by intraperitoneal administration of 1 mg of zymosan five minutes later. Intraperitoneal cells were recovered two hours later, and the results obtained by analyzing the number of PMN (neutrophils) of each by FACS are shown. […]
# Zymosan peritonitis induced by intraperitoneal administration of zymosan, which is a cell wall component of yeast, was used as the inflammation model. This model is suited to the analysis of cytokines and eicosanoids since the intraperitoneal exudate can be recovered.
# Zymosan A (Wako Pure Chemical Industries) was suspended in physiological saline to make 1 mg/mL and warmed for 30 minutes at 37° C. The zymosan A solution was then vortexed and returned to room temperature. A compound synthesized in a previous example was placed in a 1.5 mL tube and completely dried by driving off the solvent by nitrogen. It was then dissolved by adding physiological saline. […] Groups injected with only physiological saline (saline) or dexamethasone (10 μg/mouse), which is an anti-inflammatory steroid, were used as controls. Approximately two minutes later, 1 mL of zymosan A solution was administered intraperitoneally. Two hours later, cells that had exuded into the peritoneal cavity were recovered by tube by PBS, and the cells were counted. This tube was then centrifuged for five minutes at 1200 rpm, 4° C., and the supernatant was discarded. The precipitate (pellets) was suspended in PBS, and population analysis was performed by FACS three-color stain.
# Peritoneal cells were adjusted to 2.5×10^6 cells/mL, and 200 μL was placed in a 5 mL round-bottomed tube (BD Falcon) (5×10^5 cells/tube). A quantity of 1 μL/tube of anti-mouse CD16/CD32 antibody (0.5 mg/mL; BD Biosciences) was added to this tube and incubated for 10 minutes at room temperature. Staining antibody mix (1.0 μL/sample of FITC-bound anti-mouse F4/80 antibody (0.5 mg/mL; eBioscience), 0.5 μL of PE-bound anti-mouse Ly-6G&Ly-6C antibody (0.2 mg/mL; eBioscience), and 0.5 μL of perCP-Cy5.5-bound anti-mouse CD11b antibody (0.2 mg/mL; eBioscience) per sample prepared by dilution by 50 μL of PBS) was added to this tube in a quantity of 50 μL/tube and incubated for 15 minutes at room temperature shielded from light. Measurement was performed by an FACS Calibur (BD Biosciences).
# [1] = 100 ng, Table 3 (FIG. 4A), mean of 4-6 studies
# [2] = 100 ng, Table 4 (FIG. 4B), mean of 3-4 studies
# [3] = 100 ng, Table 5 (FIG. 4B), mean of 3-4 studies
# [4] = 100 ng, Table 6 (FIG. 4D), mean of 6-11 studies
compound,measurement,setting,value
"CCC1OC1CC(O)/C=C/C=C\C/C=C\C/C=C\CCCC(=O)O (stereo not shown) [15-hy-17,18-EpETE, 15-hydroxy-17,18-epoxy-eicosatetraenoic acid]",PMN (mean % suppression),[1],42.9%
"CCC1OC1CC=CCC=CCC=CCC=CC=CC(O)CCC(=O)O (stereo not shown) [4-hy-19,20-EpDPE, 4-hydroxy-19,20-epoxy-docosapentaenoic acid]","suppression of neutrophil infiltration, result in words",100 ng,tend to suppress neutrophil infiltration
same,PMN (mean % suppression),[2],2.1%
same,PMN (mean % suppression),"500 ng, Table 4 (FIG. 4B)",0.0%
"CCC1OC1CC=CCC=CCC=CCC=CCC=CCCC(=O)O (stereo not shown) [19,20-EpDPE, 19,20-epoxydocosapentaenoic acid, reference compound]",PMN (mean % suppression),[2],0.0%
same,PMN (mean % suppression),[3],0.0%
"CCC1OC1C/C=C\C/C=C\C/C=C\C/C=C\CCCC(=O)O (stereo not shown) [17,18-EpETE, 17,18-epoxyeicosatetraenoic acid, reference compound]",PMN (mean % suppression),[1],0.0%
"14-hydroxy-19,20-epoxy-docosatetraenoic acid [14hy-19,20-EpDTE]","suppression of neutrophil infiltration, result in words",100 ng,statistically significant effects
same,PMN (mean % suppression),[4],15.35%
"CCC1OC1CC=CC=CC(O)CC=CCC=CCC=CCCC(=O)O (stereo not shown) [13-hy-19,20-EpDPE, 13-hydroxy-19,20-epoxy-docosapentaenoic acid]",PMN (mean % suppression),[3],12.0%
"CCC1OC1CC=CCC=CCC=CC=CC(O)CCCC(=O)O (stereo not shown) [5-hy-17,18-EpETE, 5-hydroxy-17,18-epoxy-eicosatetraeonic acid]",PMN (mean % suppression),[1],50.6%
"CCC1OC1C/C=C\C/C=C\C=C\C(O)C/C=C\CCCC(=O)O (stereo not shown) [8-hy-17,18-EpETE, 8-hydroxy-17,18-epoxy-eicosatetraenoic acid]",PMN (mean % suppression),[1],10.4%
"CCC1OC1CC(O)C=CC=CCC=CCC=CCC=CCCC(=O)O (stereo not shown) [17-hy-19,20-EpDPE, 17-hydroxy-19,20-epoxy-docosapentaenoic acid]",PMN (mean % suppression),[3],59.5%
"CCC1OC1CC=CCC=CCC=CC=CC(O)CC=CCCC(=O)O (stereo not shown) [7-hy-19,20-EpDPE, 7-hydroxy-19,20-epoxy-docosapentaenoic acid]",PMN (mean % suppression),[2],0.0%
same,"suppression of neutrophil infiltration, result in words",500 ng,tend to suppress neutrophil infiltration
same,PMN (mean % suppression),"500 ng, Table 4 (FIG. 4B)",8.7%
"CCC1OC1CC=CCC(O)C=CC=CCC=CCCCC(=O)O (stereo not shown) [12hy-17,18-EpETE, 12-hydroxy-17,18-epoxy-eicosatetraenoic acid]",suppression of neutrophil infiltration,1 ng/mouse,30%
same,suppression of neutrophil infiltration,10 ng/mouse,approximately 40%
same,PMN (mean % suppression),[1],48.4%
same,neutrophil-suppressing activity compared with dexamethasone control,1 or 10 ng/mouse versus 10 μg/mouse of dexamethasone,equivalent to or better than
same,Inhibition rate (PMN inhibition),dose 0.44 ng,28.8%
same,Inhibition rate (PMN inhibition),dose 4.35 ng,39.3%
same,Inhibition rate (PMN inhibition),dose 43.48 ng,56.3%
same,Inhibition rate (PMN inhibition),dose 434.8 ng,49.8%
same,dose dependence of PMN inhibition,doses 0.44 to 434.3 ng (FIG. 4C),dose-dependent
"CCC1OC1CC=CCC=CC=CC(O)CC=CCC=CCCC(=O)O (stereo not shown) [10-hy-19,20-EpDPE, 10-hydroxy-19,20-epoxy-docosapentaenoic acid]",PMN (mean % suppression),[3],20.7%
"17-hydroxy-19,20-epoxy-docosatetraenoic acid [17hy-19,20-EpDTE]","suppression of neutrophil infiltration, result in words",100 ng,statistically significant effects
same,PMN (mean % suppression),[4],23.28%
"CCC1OC1C/C=C\C/C=C\C=C\C(O)C/C=C\CCCCCC(=O)O (stereo not shown) [10hy-19,20-EpDTE, 10-hydroxy-19,20-epoxy-docosatetraenoic acid]","suppression of neutrophil infiltration, result in words",100 ng,tendency toward suppression
same,PMN (mean % suppression),[4],8.27%
"CCC1OC1CC=CCC(O)C=CC=CCC=CCC=CCCC(=O)O (stereo not shown) [14-hy-19,20-EpDPE, 14-hydroxy-19,20-epoxy-docosapentaeonic acid]",PMN (mean % suppression),[3],57.3%
